Test results published in US20200237700A1, “METHODS OF REDUCING OR PREVENTING OXIDATION OF SMALL DENSE LDL OR MEMBRANE POLYUNSATURATED FATTY ACIDS” (Amarin Pharmaceuticals Ireland Limited, priority 2015, published 2020).

Tested on: human sdLDL
Assay: Copper-induced sdLDL oxidation, TBARS after 2 hr (Example 6)
Assay type: biochemical
Details: 10 μM CuSO4
Description: An experiment to study the antioxidant effect of EPA in small dense […] performed. […] Vitamin E (α-tocopherol) was purchased from Sigma-Aldrich and prepared in ethanol at 1.0 mM (ε=3.06×10^4 M^-1 cm^-1 at 294 nm) just prior to experimental use. All test compounds were further diluted in ethanol or aqueous buffer as needed. Venous blood was collected from healthy volunteers into vacutainer tubes containing sodium EDTA. Plasma was separated by centrifugation at 3000 g for 25 min at 4° C. and adjusted to a density of 1.020 g/mL with KBr. Triglyceride-rich lipoproteins (TGRL) and LDL fractions were then isolated by sequential centrifugation at 70,000 rpm at 4° C. in a Beckman LE-80 ultracentrifuge using a Beckman 50.4Ti rotor (Beckman Coulter, Inc., Fullerton, Calif.). The TGRL fraction (with a relative density of <1.020) was aspirated from the top of the centrifugate and discarded, leaving an LDL-enriched […] relative density of 1.020 to 1.063). […] The sdLDL subfraction was retained for additional experimentation. Plasma and lipoprotein fractions were maintained at 4° C. and protected from excessive exposure to light. Prior to oxidation experiments, EDTA was removed from the lipoprotein fraction using PD-10 desalting columns (GE Healthcare, Piscataway N.J.). After equilibration of the column with phosphate buffered saline (PBS), 2.5 mL of the lipoprotein fraction was loaded on the column and the flow-through discarded. The lipoprotein was then eluted with 3 mL of PBS. The LDL fractions were further diluted with PBS to obtain a 100 μg/mL apoB100 concentration. […] Data are presented as mean±S.D. for (N) separate samples or treatment groups. Differences between groups were analyzed using the two-tailed, Student's t-test (for comparisons between only two groups) or ANOVA followed by Dunnett or Student-Newman-Keuls multiple comparisons post-hoc analysis (for comparisons between three or more groups).

Compound: CC/C=C\C/C=C\C/C=C\C/C=C\C/C=C\CCCC(=O)O [EPA, cis-5,8,11,14,17-eicosapentaenoic acid]
- reduced TBARS levels compared to vehicle-treated controls (1.0 μM): 13%
- reduced TBARS levels compared to vehicle-treated controls (10.0 μM): 57%
